Test results as given in publication PMC9525345, “Hypoalbuminemia affects the spatio-temporal tissue distribution of ochratoxin A in liver and kidneys: consequences for organ toxicity” (Archives of Toxicology, 2022).
Where two headings read alike, the source gives them in different places.

Experiments:
[1] = Intravital two-photon imaging of OTA transport in the liver; type: in vivo, mice
Description: (§1) Intravital imaging of OTA transport in the livers and the kidneys of anesthetized wild-type and albumin knockout mice was done using an inverted two-photon microscope (LSM MP7, Zeiss, Germany). Details of the surgical preparation of the mice and exposure of the liver and the kidneys for imaging were previously described (Ghallab et al. [2021a]; Reif et al. [2017]). Tissue morphology was visualized by intravenous administration of the mitochondrial membrane potential marker tetramethylrhodamine ethyl ester (TMRE) (#T669, ThermoFisher Scientific) approximately 10 min before recording (Table 2). To image its transport kinetics in the liver and kidneys, a bolus of OTA (5 mg/kg) was administered via a tail vein catheter (SAI-infusion, IL, USA) within approximately 20 s after the onset of recording; the first few frames recorded prior to the OTA administration served to detect the basal tissue auto-fluorescence (Table 2). The mice were kept under controlled ambient temperature conditions of 36 °C, with exposure to a maintenance isoflurane inhalation anesthesia during the entire recording session.
(§2) During image processing, rigid body registration was performed using StackReg (Thévenaz et al. [1998]) to compensate for tissue movement in the recorded time series. From these stabilized videos, 2D projections were generated using average and standard deviation operators. The pixel classification and autocontext workflows of the interactive image segmentation software ilastik (version 1.3.3post1) (Berg et al. [2019]) were used for compartment segmentation in the 2D projections of liver and kidney. The compartments considered are sinusoids, hepatocyte cytoplasm and bile canaliculi in the liver, as well as inter-tubular capillaries, renal tubular lumen, and the tubular epithelial cells in the kidney. Mean raw OTA intensities were measured per compartment and frame. In addition, for the kidney, mean OTA intensities per tubule were measured based on the signal in the TMRE positive cell compartment, and tubules were subsequently grouped into two sets using k-means clustering based on their maximum mean OTA intensity over time.
(§3) For the calculation of the elimination half-life, Microsoft excel was used. First, the decadic logarithm of the intensity was plotted against the time. Then, the linear declining portion of the curve was selected manually and used for construction of a trend line. Next, the slope of the trendline was multiplied by 2.303 to convert the decadic to the natural logarithm and enable usage of the following formulas: • kel = -slope (Certara knowledgebase) • T ½ = ln (2) /kel (Certara knowledgebase)

[2] = Intravital two-photon imaging of OTA transport in the kidneys; type: in vivo, mice; conditions: 5 mg/kg tail vein bolus
Description: as §1, §2, §3

[3] = tested on: wild-type and albumin knockout mice; experiment: Ochratoxin A toxicity experiment: liver (histopathology, ALT, AST); type: in vivo; conditions: 24 h; for liver histopathology: 10 mg/kg i.v. single dose
Procedure: (§4) To study the role of albumin in OTA toxicity, 8-week-old female homozygote and heterozygote albumin-deficient mice, and corresponding C57BL/6 J wild-type controls were challenged intravenously with 10 mg/kg OTA (#10470691, Fisher Scientific) dissolved in 0.1 M NaHCO3, pH 7.4, with an application volume of 2 ml/kg. On day 1 after OTA injection, heart blood samples were collected, and plasma was separated according to a standard protocol (Gianmoena et al. [2021]). In addition, tissue specimens were collected from the left liver lobe and kidneys, fixed for 2 days in 4% paraformaldehyde (#P087-5, Roth), and finally embedded in paraffin for histopathology and immunohistochemistry analyses (Schneider et al. [2021b]).
(§5) Plasma concentration of albumin, creatinine, and blood urea nitrogen (BUN), as well as activities of alanine transaminase (ALT), and aspartate transaminase (AST) were analyzed by the Piccolo Xpress Chemistry Analyzer (Hitado, Germany) using the Piccolo general chemistry 13 panel (#AB-114-400-0029, Hitado, Germany).
(§6) Hematoxylin and eosin (H&E) staining was performed in 4 µm-thick paraffin-embedded liver and kidney tissue sections as previously described (Campos et al. [2020]).
(§7) Visualization of albumin protein expression in the liver tissue, and immune cell infiltration in the liver and kidney tissues was done by immunohistochemistry using an autostainer (Discovery Ultra Automated Slide Preparation System, Roche, Germany) (Ghallab et al. [2021b]). For this purpose, 4 µm-thick paraffin-embedded liver or kidney tissue sections were incubated with primary antibodies against albumin (# ab192603, abcam), CD45 (a pan leukocyte marker; #550,539, BD Bioscience), and FSP1 (a marker of inflammatory subpopulation of macrophages (Österreicher et al. [2011]) (#ab197896, Abcam). Dilutions of the primary antibodies as well as the used secondary antibodies are described in Table 2. Following staining, entire slides were scanned (Axio Scan.Z1, Zeiss, Germany) and representative images are shown in the results section.

[4] = tested on: wild-type and albumin knockout mice; experiment: Ochratoxin A toxicity experiment: kidney (histopathology, creatinine, BUN, CD45); type: in vivo; conditions: 24 h
Procedure: as §4, §5, §6, §7

[5] = set-up: method as in EFSA [2020]; conditions: ref EFSA [2020]; cited from earlier work
[6] = set-up: method as in Perry et al. [2003]; conditions: weak organic acid; ref Perry et al. [2003]; cited from earlier work
HSA = tested on: HSA; set-up: method as in Poor et al. [2013]; Sueck et al. [2018]; conditions: ref Poor et al. [2013], Sueck et al. [2018]; cited from earlier work
[7] = set-up: method as in O'Brien and Dietrich [2005]; Ringot et al. [2006]; conditions: mice, per os; ref O'Brien and Dietrich [2005]; Ringot et al. [2006]; cited from earlier work
[8] = set-up: method as in O'Brien and Dietrich [2005]; Ringot et al. [2006]; conditions: human; ref O'Brien and Dietrich [2005]; Ringot et al. [2006]; cited from earlier work
mice [9] = tested on: mice; set-up: method as in IARC [1993]; conditions: ref IARC [1993], cited from earlier work
[10] = set-up: method as in Anzai et al. [2010]; Ringot et al. [2006]; conditions: ref Anzai et al. [2010]; Ringot et al. [2006]; cited from earlier work
mice [11] = tested on: mice; set-up: method as in Bendele et al. [1985]; Kanisawa and Suzuki [1978]; conditions: mice-fed diets containing 40 ppm, equivalent to 5.6 mg/kg b.w. per day; ref Bendele et al. [1985]; Kanisawa and Suzuki [1978]; cited from earlier work
[12] = homozygous albumin knockout mice
[13] = heterozygous albumin knockout mice

Structure (SMILES): C[C@@H]1Cc2c(Cl)cc(C(=O)N[C@@H](Cc3ccccc3)C(=O)O)c(O)c2C(=O)O1 [OTA, Ochratoxin A]
- transport of OTA to hepatocytes and bile canaliculi ([1]; heterozygous albumin knockout mice, 5 mg/kg tail vein bolus): transient increases in hepatocytes and enrichment in bile canaliculi
- disappearance of OTA from blood after bolus injection [1, 12]: completely disappeared from the blood of homozygous albumin knockout mice within a minute
- transport of OTA to hepatocytes and bile canaliculi ([1]; homozygous albumin knockout mice, 5 mg/kg tail vein bolus): massively increased canalicular secretion with almost no increase in the hepatocytes
- half-life ([1]; mouse, sinusoidal blood (liver), intravenous, homozygous albumin knockout mice, 5 mg/kg tail vein bolus, read-out: half-life of OTA signal in sinusoidal blood): ~0.22 min
- transport of OTA to hepatocytes and bile canaliculi ([1]; wild-type mice, 5 mg/kg tail vein bolus): No transport of OTA to hepatocytes and bile canaliculi was detectable
- OTA signal in tubular lumen and tubular epithelial cells [2, 13]: a longer duration and higher intensity of the OTA signal in the tubular epithelial cells
- OTA signal in tubular lumen and tubular epithelial cells [2, 12]: rapid filtration into the renal tubular lumen and enrichment into the tubular epithelial cells
- half-life ([2]; mouse, renal blood capillaries (kidney), intravenous, homozygous albumin knockout mice, read-out: half-life of OTA signal in renal blood capillaries): ~0.28 min
- OTA signal in tubular lumen and tubular epithelial cells ([2]; wild-type mice): only a weak, transient increase was seen in the lumen and cytoplasm of the tubular epithelial cells
- liver histopathology [3, 13]: massive pericentral necrosis and hemorrhage
- blood biomarkers of liver injury ALT and AST ([3]; heterozygous albumin-deficient mice compared to wild-type and homozygous, 10 mg/kg i.v.): significantly increased values
- liver histopathology [3, 12]: appeared smaller compared to the heterozygous animals
- liver histopathology ([3]; wild-type mice): small clusters of dead cells in the pericentral compartment of the liver lobule
- blood biomarkers of kidney damage, creatinine and urea nitrogen ([4]; between the three mouse models, 10 mg/kg i.v.): no significant differences
- immune cell infiltration in kidney (CD45) ([4]; wild type and albumin knockout mice, 10 mg/kg i.v.): no obvious immune cell infiltration
- macroscopical or histopathological alterations in kidney tissue ([4]; wild-type, heterozygous and homozygous knockout mice, 10 mg/kg i.v. single dose): did not cause obvious macroscopical or histopathological alterations in the kidney tissue
- Log Pow [5]: 4.37
- pKa, carboxyl group [6]: 4.3
- pKa, phenolic hydroxyl group [6]: 7.2
- Albumin binding K (HSA): ~10^7
- Albumin binding log K (HSA): 7.0 – 7.6
- Half-life in blood t1/2 [7]: 40 h
- Half-life in blood t1/2 [8]: 35.5 days
- Acute toxicity LD50 (mice [9]; i.v.): 25.7 to 33.8 mg/kg
- Acute toxicity LD50 (mice [9]; p.o.): 46 to 58.3 mg/kg
- plasma protein-binding capacity [10]: > 99%
- tumor induction in chronic toxicity studies (mice [11]): induced liver and kidney tumors
